{
  "source": "patent US20150306108A1",
  "about": "“COMPOSITIONS OF ALDH1A1 INHIBITORS AND METHODS OF USE IN TREATING CANCER” (Indiana University Research & Technology Corporation, priority 2014, published 2015)",
  "key": {"ALDH3A1": {"target": "T1, ALDH3A1 (Homo sapiens, UniProt P30838)", "T1 construct": "made in house", "T1 sequence (P30838 1-453)": "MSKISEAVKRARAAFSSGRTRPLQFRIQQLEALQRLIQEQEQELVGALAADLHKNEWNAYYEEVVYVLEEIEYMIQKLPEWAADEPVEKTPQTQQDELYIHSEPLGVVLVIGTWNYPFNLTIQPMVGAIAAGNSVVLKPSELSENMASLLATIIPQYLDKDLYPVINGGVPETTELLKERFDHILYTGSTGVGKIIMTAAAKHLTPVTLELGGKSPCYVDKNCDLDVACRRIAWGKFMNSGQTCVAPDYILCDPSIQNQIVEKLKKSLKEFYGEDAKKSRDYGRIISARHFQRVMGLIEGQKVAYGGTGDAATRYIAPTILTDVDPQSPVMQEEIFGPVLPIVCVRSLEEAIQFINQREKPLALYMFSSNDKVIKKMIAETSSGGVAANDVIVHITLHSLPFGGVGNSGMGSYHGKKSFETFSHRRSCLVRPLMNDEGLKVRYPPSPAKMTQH", "assay": "ALDH3A1 benzaldehyde oxidation activity assay", "assay_type": "biochemical", "details": "for IC50: Table 4, NI/NI(A) at 100 μM compound, read-out: IC50 in μM (SE) ALDH3A1", "procedure": "Hits from the HTS were ordered from ChemDiv to determine if they had any effect on aldehyde oxidation and whether they were selective for ALDH1A1 compared to ALDH2 and ALDH3A1. Dehydrogenase activity of the three isoenzymes were assayed by monitoring the production of NADH at 340 nm (molar extinction coefficient of 6220 M^−1 cm^−1) on a Beckman DU-640 or Cary 300 Bio UV-Vis spectrophotometer for 2 to 3 minutes. For ALDH1A1 and ALDH2, the reaction contained 100-200 nM enzyme, 200 μM NAD^+, 100 μM propionaldehyde, and 1% DMSO in 50 mM Na^+ BES, pH 7.5 at room temperature. For ALDH3A1, the reaction contained 20 nM enzyme, 200 μM NAD^+, 300 μM benzaldehyde, and 1% DMSO in either 100 mM sodium phosphate or 50 mM Na^+ BES at pH 7.5 at room temperature.\nFor most compounds, 20 μM concentration was used for the selectivity assays. […] Following a 2 minute incubation of enzyme, compound, and NAD^+, the reaction was initiated by adding substrate. […] Data were fit to the four parameter EC50 equation using SigmaPlot (StatSys v12.3).\nDehydrogenase activity of purified recombinant ALDH1A1, ALDH1A2, ALDH1A3, ALDH1B1, ALDH2, and ALDH3A1 was assayed spectrophotometrically by monitoring the formation of NADH at 340 nm (molar extinction coefficient of 6220 M^−1 cm^−1) on a Beckman DU-640 or Cary 300 Bio UV-Vis spectrophotometer. Characterization of ALDH1A1 WT and ALDH1A1 G458N were performed by co-varying acetaldehyde and NAD^+ concentrations in reactions containing 150-300 nM enzyme, 50-500 μM or 20-200 μM acetaldehyde, and 50-500 μM NAD^+ in 50 mM sodium BES, pH 7.5 at 25° C. Reactions were initiated by adding enzyme. Selectivity of compounds for dehydrogenase activity of ALDH1A1, ALDH1A2, ALDH1A3, ALDH1B1 and ALDH2 were measured in a solution containing 100-200 nM enzyme, 200 μM NAD^+, 1% DMSO, and 100 μM propionaldehyde (non-saturating for all enzymes tested, except ALDH2) in 50 mM sodium BES. ALDH3A1 activity was measured under the following conditions: 25 nM enzyme, 200 μM NAD^+, 1% DMSO, and 300 μM benzaldehyde (˜KM) in either 100 mM sodium phosphate buffer, pH 7.5 or 50 mM sodium BES, pH 7.5. All assays were performed at 25° C. and were initiated by the addition of the aldehyde substrate following a 2 minute pre-incubation with compound and cofactor. Selectivity was initially tested using 20 μM compound, with ALDH1A1-selective modulators further tested using 100 μM compound. […] After a 2 minute pre-incubation with compound and NAD^+, all reactions were initiated by the addition of propionaldehyde. Data were fit to the four parameter EC50 equation using SigmaPlot (StatSys v12.3). The values represent the average of three independent experiments (each n=3). The mode of inhibition was determined via steady-state kinetics by co-varying inhibitor and substrate concentrations at fixed concentration of the second substrate. All reactions contained 100-150 nM ALDH1A1 and 1% DMSO in 50 mM sodium BES, pH 7.5 at 25° C. […] All data were fit to competitive, noncompetitive, uncompetitive, and mixed inhibition models using both single substrate-single inhibitor or tight binding inhibition programs in SigmaPlot (StatSys v12.3). The appropriate model was selected through analysis of goodness-of-fit and the residuals of those fits. The values represent the average of three independent experiments (each n=3) using at least two protein preps.\nALDH1A1, ALDH1A2, ALDH1A3, ALDH2, and ALDH3A1 were produced and purified as previously described. A highthroughput screen (HTS) of 64,000 compounds from the ChemDiv Corp. was performed to identify activators and inhibitors of ALDH1A1. The hydrolysis of para-nitrophenylacetate was used as a measure ALDH1A1 activity (see SM). Selectivity for closely related orthologs was tested at 20 and 100 μM using purified recombinant human ALDH1A1, ALDH1A2, ALDH1A3, ALDH2, and ALDH3A1. […]"}, "ALDH1A2": {"target": "T2, ALDH1A2 (Homo sapiens, UniProt O94788)", "T2 sequence (O94788 1-518)": "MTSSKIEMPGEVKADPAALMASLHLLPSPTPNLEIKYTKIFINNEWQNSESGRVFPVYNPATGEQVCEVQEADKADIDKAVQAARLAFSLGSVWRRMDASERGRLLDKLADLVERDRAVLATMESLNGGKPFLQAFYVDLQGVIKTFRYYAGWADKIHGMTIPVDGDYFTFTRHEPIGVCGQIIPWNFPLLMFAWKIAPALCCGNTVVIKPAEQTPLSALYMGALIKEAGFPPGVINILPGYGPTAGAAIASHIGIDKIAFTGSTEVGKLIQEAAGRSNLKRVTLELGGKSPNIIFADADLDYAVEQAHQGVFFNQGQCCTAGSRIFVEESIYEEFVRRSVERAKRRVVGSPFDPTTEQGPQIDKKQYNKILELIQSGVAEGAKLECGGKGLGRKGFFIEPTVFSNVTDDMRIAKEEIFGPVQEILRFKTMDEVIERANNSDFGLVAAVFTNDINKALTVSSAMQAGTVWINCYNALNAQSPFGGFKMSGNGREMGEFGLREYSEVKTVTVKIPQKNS", "assay": "biochemical", "assay_type": "biochemical", "details": "for effect on aldehyde oxidation catalyzed by ALDH1A2: 100 μM compound (CM037: concentrations up to 100 μM)"}, "[1]": {"details": "Table 4, NI/NI(A) at 100 μM compound, read-out: IC50 in μM (SE) ALDH1A2"}},
  "note": "Like-named read-outs stand apart in the source and are kept apart here.",
  "data": [
    {"smiles": "CC(C)CCn1c(CN2CCOCC2)nc2c1c(=O)n(C)c(=O)n2C", "note": "[CM056]", "values": [
      {"measurement": "IC50", "setting": "ALDH3A1", "value": "> 100", "unit": "µM"},
      {"measurement": "IC50", "setting": "ALDH1A2; [1]", "value": "> 100", "unit": "µM"}
    ]},
    {"smiles": "COc1ccc(C(=O)CSC#N)cc1OC", "note": "[CM302]", "values": [
      {"measurement": "effect on ALDH3A1", "setting": "ALDH3A1; 20 μM compound", "value": "To a limited degree"},
      {"measurement": "IC50 with ALDH3A1 compared to ALDH1A1 and ALDH2", "setting": "ALDH3A1; fold higher", "value": "greater than 10 fold"}
    ]},
    {"smiles": "CC(C)CCn1c(CN2CCN(C(=O)c3ccco3)CC2)nc2c1c(=O)n(C)c(=O)n2C", "note": "[CM026]", "values": [
      {"measurement": "effect on ALDH3A1", "setting": "ALDH3A1; 20 μM compound", "value": "no effect"},
      {"measurement": "IC50", "setting": "ALDH3A1", "value": "> 100", "unit": "µM"},
      {"measurement": "effect on ALDH1A2", "setting": "ALDH1A2; 20 μM compound", "value": "no effect"},
      {"measurement": "effect on aldehyde oxidation catalyzed by ALDH1A2", "setting": "ALDH1A2", "value": "modestly increased"},
      {"measurement": "IC50", "setting": "ALDH1A2; [1]", "value": "> 100", "unit": "µM"}
    ]},
    {"smiles": "CCOC(=O)CSc1nc2c(sc3ccccc32)c(=O)n1CCCN1CCCC1", "note": "[CM037, ethyl-2-((4-oxo-3-(3-(pryrrolidin-1-yl)propyl)-3,4-dihydrobenzo[4,5]thioeno[3,2-d]pyrimidin-2-yl)thio)acetate]", "values": [
      {"measurement": "effect on ALDH3A1", "setting": "ALDH3A1; concentrations up to 100 μM", "value": "no effect"},
      {"measurement": "effect on aldehyde oxidation catalyzed by ALDH1A2", "setting": "ALDH1A2", "value": "no effect"}
    ]},
    {"smiles": "Cn1c(=O)c2c(ncn2C)n(C)c1=O", "note": "[Caffeine, reference compound]", "values": [
      {"measurement": "IC50", "setting": "ALDH3A1", "value": "> 100", "unit": "µM"},
      {"measurement": "IC50", "setting": "ALDH1A2; [1]", "value": "> 100", "unit": "µM"}
    ]},
    {"smiles": "Cn1c(=O)c2[nH]cnc2n(C)c1=O", "note": "[Theophylline, reference compound]", "values": [
      {"measurement": "IC50", "setting": "ALDH3A1", "value": "> 100", "unit": "µM"},
      {"measurement": "IC50", "setting": "ALDH1A2", "value": "> 100", "unit": "µM"}
    ]},
    {"smiles": "Cn1c(=O)c2c(nc(CN3CCC(C(N)=O)CC3)n2CCCc2ccccc2)n(C)c1=O", "note": "[CM028]", "values": [
      {"measurement": "IC50", "setting": "ALDH3A1", "value": "> 100", "unit": "µM"},
      {"measurement": "IC50", "setting": "ALDH1A2; [1]", "value": "> 100", "unit": "µM"}
    ]}
  ]
}
